Data taken from BindingDB's records for doi:10.1021/jm049771u (Bar-Ilan University, 2004).

Target: P2Y purinoceptor 1 (Rattus norvegicus, UniProt P49651)
Assay: Concentration required for calcium mobilization at rat purinergic 2Y1 receptor expressed in HEK 293 cells

P2Y purinoceptor 1, sequence (P49651 whole entry): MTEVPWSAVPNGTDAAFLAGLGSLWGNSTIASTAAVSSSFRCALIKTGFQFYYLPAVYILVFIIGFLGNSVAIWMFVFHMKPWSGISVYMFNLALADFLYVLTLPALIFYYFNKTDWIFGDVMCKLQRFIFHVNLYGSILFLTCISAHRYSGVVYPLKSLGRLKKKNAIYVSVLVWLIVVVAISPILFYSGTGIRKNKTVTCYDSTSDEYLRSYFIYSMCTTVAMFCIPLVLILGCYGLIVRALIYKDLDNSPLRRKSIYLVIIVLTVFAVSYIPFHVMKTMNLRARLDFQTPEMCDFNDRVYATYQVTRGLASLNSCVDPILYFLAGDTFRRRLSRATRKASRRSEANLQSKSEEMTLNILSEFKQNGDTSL

In the case of `B[PH](O)(OC[C@H]1OC(n2cnc3c(N)nc(Cl)nc32)[C@H](O)[C@@H]1O)OP(=O)(O)OP(=O)(O)O` (stereo partly specified), the EC50 is reported as 4.5 nM.
